Literature values, collected in patent US20070148689A1, “Compositions and methods for the prevention, treatment and detection of tuberculosis and other diseases” (priority 2000, published 2007).

Tests used:
[1] = biological target: CODH (Neomoorella thermoacetica, UniProt P27988)
[2] = chelator by intraperitoneal injection shortly after oral or intraperitoneal administration of nickel
[3] = 10% DTPA in an oil-in-water emulsion
[4] = biological target: CO(L)-deficient CODH (Rhodospirillum rubrum, UniProt P31896)
CO(L)-deficient CODH, sequence (P31896 whole entry): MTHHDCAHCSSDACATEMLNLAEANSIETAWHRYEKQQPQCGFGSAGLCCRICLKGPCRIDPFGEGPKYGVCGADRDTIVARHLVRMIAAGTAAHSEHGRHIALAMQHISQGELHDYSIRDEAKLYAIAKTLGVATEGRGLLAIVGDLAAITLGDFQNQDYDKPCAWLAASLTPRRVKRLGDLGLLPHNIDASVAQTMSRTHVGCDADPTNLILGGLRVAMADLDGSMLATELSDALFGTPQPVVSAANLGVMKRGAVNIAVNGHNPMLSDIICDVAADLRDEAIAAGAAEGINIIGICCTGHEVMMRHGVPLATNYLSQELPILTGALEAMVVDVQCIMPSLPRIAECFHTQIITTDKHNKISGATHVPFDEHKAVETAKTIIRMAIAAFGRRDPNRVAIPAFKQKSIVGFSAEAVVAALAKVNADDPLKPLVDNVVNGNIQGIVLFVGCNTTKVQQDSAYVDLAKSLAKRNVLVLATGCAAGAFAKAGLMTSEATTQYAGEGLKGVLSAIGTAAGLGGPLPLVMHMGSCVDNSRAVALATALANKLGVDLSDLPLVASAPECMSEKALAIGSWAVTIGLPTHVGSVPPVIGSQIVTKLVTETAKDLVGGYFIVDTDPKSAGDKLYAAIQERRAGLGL

CODH, sequence (P27989 whole entry): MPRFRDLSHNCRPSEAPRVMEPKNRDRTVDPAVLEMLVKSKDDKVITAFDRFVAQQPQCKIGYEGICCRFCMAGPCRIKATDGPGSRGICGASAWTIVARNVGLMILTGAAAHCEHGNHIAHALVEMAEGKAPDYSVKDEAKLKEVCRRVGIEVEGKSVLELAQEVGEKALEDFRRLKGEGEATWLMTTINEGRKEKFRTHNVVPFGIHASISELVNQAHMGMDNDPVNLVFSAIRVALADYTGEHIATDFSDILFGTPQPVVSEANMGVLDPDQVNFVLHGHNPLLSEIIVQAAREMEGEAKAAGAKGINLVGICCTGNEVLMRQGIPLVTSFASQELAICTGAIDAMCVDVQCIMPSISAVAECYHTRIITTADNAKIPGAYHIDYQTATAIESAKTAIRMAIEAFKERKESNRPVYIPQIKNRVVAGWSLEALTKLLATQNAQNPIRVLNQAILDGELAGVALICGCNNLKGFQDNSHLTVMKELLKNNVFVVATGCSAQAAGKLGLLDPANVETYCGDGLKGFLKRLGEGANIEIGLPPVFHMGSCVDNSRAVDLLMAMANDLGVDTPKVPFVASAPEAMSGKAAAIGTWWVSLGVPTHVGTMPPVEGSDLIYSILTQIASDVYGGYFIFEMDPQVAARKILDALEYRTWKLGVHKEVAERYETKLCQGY
CODH, sequence (P27988 whole entry): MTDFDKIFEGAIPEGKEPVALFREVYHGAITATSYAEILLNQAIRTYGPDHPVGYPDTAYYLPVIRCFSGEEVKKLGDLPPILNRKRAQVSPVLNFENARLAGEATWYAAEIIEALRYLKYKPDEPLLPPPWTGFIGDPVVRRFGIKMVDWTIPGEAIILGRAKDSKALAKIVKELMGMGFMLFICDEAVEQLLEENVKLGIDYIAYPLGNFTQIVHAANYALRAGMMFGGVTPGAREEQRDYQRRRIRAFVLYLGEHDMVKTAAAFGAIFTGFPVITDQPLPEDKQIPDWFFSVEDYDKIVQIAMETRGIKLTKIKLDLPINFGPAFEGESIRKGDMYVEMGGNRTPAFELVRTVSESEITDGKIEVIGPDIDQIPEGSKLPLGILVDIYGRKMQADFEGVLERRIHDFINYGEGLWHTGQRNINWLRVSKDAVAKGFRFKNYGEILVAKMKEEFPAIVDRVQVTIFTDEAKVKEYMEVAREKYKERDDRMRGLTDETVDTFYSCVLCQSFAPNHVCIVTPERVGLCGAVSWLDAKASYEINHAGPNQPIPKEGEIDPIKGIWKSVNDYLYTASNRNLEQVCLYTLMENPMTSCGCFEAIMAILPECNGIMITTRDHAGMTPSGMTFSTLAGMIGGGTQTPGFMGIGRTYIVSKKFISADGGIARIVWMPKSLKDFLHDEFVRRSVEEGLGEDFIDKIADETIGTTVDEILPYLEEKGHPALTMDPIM

c1cnc2c(c1)ccc1cccnc12 [1,10phenanthroline]
Removal of the Ni ion in the A-cluster of CODH [1]: selectively removed
Synthesis of acetyl-coenzyme A by CODH without this Ni ([1]; after Ni removal by the chelator): can't catalyze

CCN(CC)C(=S)[S-].[Na+] [DDC, Sodium diethyldithiocarbamate]
Whole-body retention of nickel [2]: increased

O=C(O)[C@@H](S)[C@@H](S)C(=O)O [DMSA, Meso-2,3-dimercaptosuccinic acid]
Water solubility: water-soluble
Toxicity (orally-administered metal chelator): non-toxic

O=C(O)CN(CCN(CC(=O)O)CC(=O)O)CCN(CC(=O)O)CC(=O)O [DTPA, diethylenetriaminepentaacetic acid]
Preventive effect in nickel-sensitized patients [3]: preventive effect

CCN(CC)C(=S)SSC(=S)N(CC)CC [TTD, Tetraethylthiuram disulphide]
Whole-body retention of nickel [2]: increased

CC(=NO)C(C)=NO [dimethylglyoxime]
Removal of Ni from CO(L)-deficient CODH by treatment [4]: can be removed
